The values below are quoted from earlier work in paper PMC5487681, “Identification of Antifungal H^+-ATPase Inhibitors with Effect on Plasma Membrane Potential” (Antimicrobial Agents and Chemotherapy, 2017).

Data set [1] relates to Saccharomyces cerevisiae ATCC 9763. Conditions: pH 3; cited from earlier work.
Data set [2] concerns S. cerevisiae cells. Details: method as in PMID 19413991. The note with it: cited from earlier work.

As to `COc1ccc2[nH]c([S+]([O-])Cc3ncc(C)c(OC)c3C)nc2c1` (centres unmarked) [omeprazole], in data set [1], the “Concentration required for full growth inhibition of Saccharomyces cerevisiae” value was 430 µM. The “Increase in iATP levels, S. cerevisiae” value in data set [2] is 36%.
